Test results reported in paper PMC3202339 (2011).

Target: TRPV1 (Mus musculus, UniProt Q704Y3)
Assay: whole-cell patch clamp, inhibition of capsaicin
Format: cell-based

Chain of TRPV1 (Q704Y3 whole entry): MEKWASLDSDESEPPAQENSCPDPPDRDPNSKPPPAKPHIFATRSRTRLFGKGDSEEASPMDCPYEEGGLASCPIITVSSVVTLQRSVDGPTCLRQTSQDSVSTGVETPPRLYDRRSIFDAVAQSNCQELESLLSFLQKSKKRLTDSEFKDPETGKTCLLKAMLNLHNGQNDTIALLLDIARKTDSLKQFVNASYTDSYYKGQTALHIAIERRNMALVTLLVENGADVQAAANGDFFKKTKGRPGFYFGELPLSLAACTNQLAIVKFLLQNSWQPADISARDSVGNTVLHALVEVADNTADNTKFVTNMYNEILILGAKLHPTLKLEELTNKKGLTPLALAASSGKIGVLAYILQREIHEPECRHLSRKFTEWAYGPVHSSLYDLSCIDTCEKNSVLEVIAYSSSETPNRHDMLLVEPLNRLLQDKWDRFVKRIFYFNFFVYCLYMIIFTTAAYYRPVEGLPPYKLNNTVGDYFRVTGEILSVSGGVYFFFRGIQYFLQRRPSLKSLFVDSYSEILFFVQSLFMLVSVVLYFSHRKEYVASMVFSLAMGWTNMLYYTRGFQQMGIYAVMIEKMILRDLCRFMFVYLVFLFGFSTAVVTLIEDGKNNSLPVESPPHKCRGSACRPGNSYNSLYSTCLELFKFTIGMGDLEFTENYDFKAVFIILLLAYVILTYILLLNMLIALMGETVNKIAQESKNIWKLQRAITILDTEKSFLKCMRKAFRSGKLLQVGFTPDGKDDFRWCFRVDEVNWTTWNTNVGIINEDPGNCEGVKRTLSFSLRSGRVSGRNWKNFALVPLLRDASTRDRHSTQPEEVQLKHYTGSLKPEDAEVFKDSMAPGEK

In the case of `CC(C)(C)c1ccc(/C=C/C(=O)Nc2ccc3c(c2)OCCO3)cc1` [AMG9810], the IC50 is reported as 163 nM.
